Converted amounts (≈) assume the structure as drawn. Where two headings read alike, the source gives them in different places.
Assays:
[1] = target: E. coli topoisomerase I (Escherichia coli (strain K12), UniProt P06612); assay: biochemical; format: biochemical
Procedure: Recombinant E. coli topoisomerase I and gyrase expressed in E. coli were purified as described previously.
E. coli Topoisomerase I Relaxation Activity Inhibition Assay
The relaxation activity of E. coli topoisomerase I was assayed in a buffer containing 10 mM Tris-HCl, pH 8.0, 50 mM NaCl, 0.1 mg/mL gelatin, and 0.5 mM MgCl2. Half microliter from the appropriate stock solutions of compounds dissolved in the solvent (DMSO) or the solvent alone (control) was mixed with 9.5 μL of the reaction buffer containing 10 ng of enzyme before the addition of 10 μL of reaction buffer containing 200 ng of supercoiled pBAD/Thio plasmid DNA purified by cesium chloride gradient as substrate. Following incubation at 37° C. for 30 min, the reactions were terminated by the addition of 4 μL of a stop buffer (50% glycerol, 50 mM EDTA, and 0.5% (v/v) bromophenol blue), and analyzed by agarose gel electrophoresis. The gels were stained in ethidium bromide and photographed under UV light.

[2] = system: E. coli Imp4213 (BAS3023); assay: MIC, microdilution in Mueller-Hinton Broth; format: cell-based; conditions: for MIC: Escherichia coli, read-out: Whole cell based antibacterial activity (MIC) E. coli Imp4213 (BAS3023), membrane permeable imp mutant; for Whole cell based antibacterial activity (MIC) E. coli Imp4213 (BAS3023): membrane permeable imp mutant
[3] = system: E. coli (MG1655) WT; assay: MIC, microdilution in Mueller-Hinton Broth; conditions: wild type, read-out: Whole cell based antibacterial activity (MIC) E. coli (MG1655) WT
[4] = system: B. subtilis (ATCC 6633) WT; assay: MIC, microdilution in Mueller-Hinton Broth; conditions: read-out: Whole cell based antibacterial activity (MIC) B. subtilis (ATCC 6633) WT
[5] = target: Human topoisomerase I (Homo sapiens (Human), UniProt P11387); assay: Human topoisomerase I relaxation inhibition assay; format: biochemical; conditions: read-out: Topoisomerase inhibitory activity (IC50) Human topo I (type IB)
Chain of Human topoisomerase I (P11387 whole entry): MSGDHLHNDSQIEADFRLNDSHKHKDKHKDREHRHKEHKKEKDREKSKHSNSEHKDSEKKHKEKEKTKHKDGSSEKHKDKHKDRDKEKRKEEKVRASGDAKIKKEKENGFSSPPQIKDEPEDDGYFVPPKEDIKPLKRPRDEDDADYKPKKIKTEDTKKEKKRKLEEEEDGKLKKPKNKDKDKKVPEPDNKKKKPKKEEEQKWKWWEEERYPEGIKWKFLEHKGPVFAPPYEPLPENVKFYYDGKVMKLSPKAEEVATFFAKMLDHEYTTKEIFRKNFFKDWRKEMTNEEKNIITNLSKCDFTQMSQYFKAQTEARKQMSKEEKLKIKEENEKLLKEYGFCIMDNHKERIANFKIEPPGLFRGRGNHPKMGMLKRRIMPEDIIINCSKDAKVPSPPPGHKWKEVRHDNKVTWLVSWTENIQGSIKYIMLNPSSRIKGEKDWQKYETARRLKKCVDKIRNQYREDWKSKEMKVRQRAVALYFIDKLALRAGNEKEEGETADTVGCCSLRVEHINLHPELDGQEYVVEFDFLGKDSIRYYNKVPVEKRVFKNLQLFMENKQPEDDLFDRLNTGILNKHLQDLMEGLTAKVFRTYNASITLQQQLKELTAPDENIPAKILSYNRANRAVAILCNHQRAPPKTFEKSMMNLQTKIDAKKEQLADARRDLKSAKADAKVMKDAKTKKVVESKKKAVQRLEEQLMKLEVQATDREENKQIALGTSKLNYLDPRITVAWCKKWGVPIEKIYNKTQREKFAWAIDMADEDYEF
Procedure: Human topoisomerase I relaxation assays were carried out with 0.5 U of enzyme in reaction buffer supplied by the manufacturer. The enzyme was mixed with the indicated concentration of compound dissolved before 200 ng of supercoiled pBAD/Thio plasmid DNA was added in the same buffer, for a final volume of 20 μL. Following incubation at 37° C. for 30 minutes, the reactions were terminated with a buffer containing 5% SDS, 0.25% bromophenol blue, and 25% glycerol, and analyzed by agarose gel electrophoresis.
Human topoisomerase I and topoisomerase IIα were purchased from TopoGen (Buena vista, CO, USA).

[6] = system: Vero cells; assay: Vero cell cytotoxicity assay; format: cell-based; conditions: for IC50: cytotoxicity
Procedure: MICs of compounds against M. tuberculosis were determined by a modified microplate Alamar blue assay (MABA). Vero cell cytotoxicity assay was performed as previously described.

[7] = system: M. tuberculosis (H37Rv); assay: MIC, microplate Alamar blue assay (MABA); format: cell-based; conditions: MABA, read-out: Whole cell based antibacterial activity (MIC) M. tuberculosis (H37Rv)
[8] = experimental, converted from IC50
[9] = Table 3, E. coli topoisomerase I, single values set for ranges and bounds, read-out: IC50 (μM) used for CoMFA
[10] = relaxation of supercoiled plasmid DNA, read-out: Topoisomerase inhibitory activity (IC50) E. coli topo I (type IA)
[11] = Bacillus subtilis, ATCC6633, wild type
[12] = Topoisomerase inhibitory activity (IC50) E. coli topo I (type IA), relaxation of supercoiled plasmid DNA

Chain of E. coli topoisomerase I (P06612 whole entry, looked up): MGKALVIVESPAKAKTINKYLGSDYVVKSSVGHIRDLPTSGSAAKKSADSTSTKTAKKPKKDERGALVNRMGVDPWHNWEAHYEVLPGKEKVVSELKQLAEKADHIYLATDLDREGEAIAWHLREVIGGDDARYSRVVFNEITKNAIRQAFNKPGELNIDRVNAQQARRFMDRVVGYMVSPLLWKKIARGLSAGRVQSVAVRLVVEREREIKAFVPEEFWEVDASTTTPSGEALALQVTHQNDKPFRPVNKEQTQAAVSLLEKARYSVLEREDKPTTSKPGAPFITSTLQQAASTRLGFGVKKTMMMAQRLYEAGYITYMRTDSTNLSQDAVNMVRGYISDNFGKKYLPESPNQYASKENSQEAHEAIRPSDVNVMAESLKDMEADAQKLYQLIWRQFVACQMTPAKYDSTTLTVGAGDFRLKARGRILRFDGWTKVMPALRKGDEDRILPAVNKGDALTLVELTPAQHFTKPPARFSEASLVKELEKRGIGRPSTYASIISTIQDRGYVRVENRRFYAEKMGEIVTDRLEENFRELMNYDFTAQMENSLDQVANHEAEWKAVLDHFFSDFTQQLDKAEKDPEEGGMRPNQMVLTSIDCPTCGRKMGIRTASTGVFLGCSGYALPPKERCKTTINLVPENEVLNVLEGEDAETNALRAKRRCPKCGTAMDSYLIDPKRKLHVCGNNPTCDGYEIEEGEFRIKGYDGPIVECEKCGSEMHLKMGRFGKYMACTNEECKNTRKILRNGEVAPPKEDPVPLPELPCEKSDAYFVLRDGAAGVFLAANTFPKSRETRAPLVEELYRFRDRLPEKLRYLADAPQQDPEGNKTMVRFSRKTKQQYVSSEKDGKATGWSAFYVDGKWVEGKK

SMILES	PIC50 (pIC50 = −log IC50) [1, 8]	MIC [2] [µM]	MIC ([3]; Escherichia coli, MG1655) [µM]	IC50 [1, 10] [µM]	also measured
CCOC(=O)c1cn2c3c(c(F)c(F)cc3c1=O)Oc1cc([N+](=O)[O-])ccc1-2 [Compound 6a, Ethyl 5,6-difluoro-9-nitro-3-oxo-3H-pyrido[3,2,1-kl]phenoxazine-2-carboxylate]	4.81	50 (≈ 19.4 µg/mL)	> 200	–	–
CCOC(=O)c1cn2c3c(c(F)c(F)cc3c1=O)Oc1cc(C#N)ccc1-2 [Compound 6b, Ethyl 9-cyano-5,6-difluoro-3-oxo-3H-pyrido[3,2,1-kl]phenoxazine-2-carboxylate]	4.51	–	> 200	–	–
CCOC(=O)c1cn2c3c(c(F)c(F)cc3c1=O)Oc1cc(C(F)(F)F)ccc1-2 [Compound 6c, Ethyl 5,6-difluoro-3-oxo-9-(trifluoromethyl)-3H-pyrido[3,2, I-kl]phenoxazine-2-carboxylate]	3.60	–	–	> 125	MIC ([4]; wild type): >200 µM; activity against topoisomerase I when tested at 125 μM [1]: inactive; IC50 [1, 9]: 250 µM; Whole cell based antibacterial activity (MIC) E. coli Imp4213 (BAS3023) [2]: >200 µM; MIC [3]: >200 µM
O=C(O)c1cn2c3c(c(F)c(F)cc3c1=O)Oc1cc([N+](=O)[O-])ccc1-2 [Compound 7a, 5,6-Difluoro-9-nitro-3-oxo-3H-pyrido[3,2,1-kl]phenoxazine-2-carboxylic acid]	4.81	0.78 (≈ 0.281 µg/mL)	200 (≈ 72 µg/mL)	–	–
N#Cc1ccc2c(c1)Oc1c(F)c(F)cc3c(=O)c(C(=O)O)cn-2c13 [Compound 7b, 9-Cyano-5,6-d fluoro-3-oxo-3H-pyrido[3,2,1-d]phenoxazine-2-carboxylic acid]	4.51	–	–	31.2	MIC ([4]; wild type): >200 µM; IC50 [1, 9]: 31.2 µM; Whole cell based antibacterial activity (MIC) E. coli Imp4213 (BAS3023) [2]: 200 µM; MIC [3]: >200 µM
O=C(O)c1cn2c3c(c(F)c(F)cc3c1=O)Oc1cc(C(F)(F)F)ccc1-2 [Compound 7c, 5,6-Difluoro-3-oxo-9-(trifluoromethyl)-3H-pyrido[3,2,1-kl]phenoxazine-2-carboxylic acid]	–	–	> 200	> 125	activity against topoisomerase I when tested at 125 μM [1]: inactive; IC50 ([1]; IC50 (μM) used for CoMFA, Table 3, E. coli topoisomerase I, single values set for ranges and bounds): 250 µM; IC50 ([1]; PIC50 (pIC50 = −log IC50), experimental, converted from IC50): 245 µM
CC(=O)c1ccc2c(c1)Oc1c(F)c(F)cc3c(=O)c(C(=O)O)cn-2c13 [Compound 7d, 9-A cetyl-5,6-difluoro-3-oxo-3H-pyrido[3,2,1-kl]phenoxazine-2-carboxylic acid]	4.81	–	> 200	–	MIC [4, 11]: > 200 µM
CCOC(=O)c1cn2c3c(c(N4CCN(C)CC4)c(F)cc3c1=O)Oc1cc([N+](=O)[O-])ccc1-2 [Compound 9, Ethyl-5-fluoro-6-(4-methylpiperazin-1-yl)-9-nitro-3-oxo-3H-pyrido[3,2,1-kl]phenoxazine-2-carboxylate]	5.71	25 (≈ 11.7 µg/mL)	> 200	–	–
O=C(O)c1cn2c3c(c(N4CCNCC4)c(F)cc3c1=O)Oc1cc([N+](=O)[O-])ccc1-2 [Compound 10b, 5-Fluoro-9-nitro-3-oxo-6-(piperazin-1-yl)-3H-pyrido[3,2,1-kl]phenoxazine-2-carboxylic acid]	5.41	–	> 200	–	MIC [4, 11]: > 200 µM
Nc1ccc2c(c1)Oc1c(N3CCNCC3)c(F)cc3c(=O)c(C(=O)O)cn-2c13 [Compound 11b, 9-Amino-5-fluoro-3-oxo-6-(piperazin-1-yl)-3H-pyrido[3,2,1-kl]phenoxazine-2-carboxylic acid]	6.62	0.39 (≈ 0.155 µg/mL)	> 200	–	IC50 [1, 12]: 0.24 to 0.97 µM; IC50 [5]: 7.8 µM; IC50 ([6]; Chlorocebus sabaeus, Vero): > 126 µM
CC1CCN(c2c(F)cc3c(=O)c(C(=O)O)cn4c3c2Oc2cc(N)ccc2-4)CC1 [Compound 11c, 9-Amino-5-fluoro-6-(4-methylpiperidin-1-yl)-3-oxo-3H-pyrido[3,2,1-kl]phenoxazine-2-carboxylic acid]	5.41	3.12 (≈ 1.28 µg/mL)	> 200	–	IC50 [1, 12]: 3.9 to 15.6 µM
Nc1ccc2c(c1)Oc1c(NC34CC5CC(CC(C5)C3)C4)c(F)cc3c(=O)c(C(=O)O)cn-2c13 [Compound 11f, 6-(((3s, 5s, 7s)-Adamantan-1-yl)amino)-9-amino-5-fluoro-3-oxo-3H-pyrido[3,2,1-kl]phenoxazine-2-carboxylic acid]	5.23	–	–	3.9 to 7.8	MIC ([4]; wild type): 12.5 µM (≈ 5.77 µg/mL); IC50 [1, 9]: 5.85 µM; MIC [7]: 38.4 µM (≈ 17.7 µg/mL); Whole cell based antibacterial activity (MIC) E. coli Imp4213 (BAS3023) [2]: 3.12 µM; MIC [3]: >200 µM; SI (Selectivity index = cytotoxic IC50 against Vero cells/MIC against M. tuberculosis) [6]: 0.8; IC50 [6]: 30.7 µM
Nc1ccc2c(c1)Oc1c(NC3CCCCC3)c(F)cc3c(=O)c(C(=O)O)cn-2c13 [Compound 11i, 9-Amino-6-(cyclohexylamino)-5-fluoro-3-oxo-3H-pyrido[3,2,1-kl]phenoxazine-2-carboxylic acid]	5.41	25 (≈ 10.2 µg/mL)	> 200	–	IC50 [1, 12]: 3.9 to 15.6 µM
Nc1ccc2c(c1)Oc1c(NC3CCCC3)c(F)cc3c(=O)c(C(=O)O)cn-2c13 [Compound 11j, 9-Amino-6-(cyclopentylamino)-5-fluoro-3-oxo-3H-pyrido[3,2,1-kl]phenoxazine-2-carboxylic acid]	5.41	25 (≈ 9.88 µg/mL)	> 200	–	IC50 [1, 12]: 3.9 to 15.6 µM
CCCCCCNc1c(F)cc2c(=O)c(C(=O)O)cn3c2c1Oc1cc(N)ccc1-3 [Compound 11k, 9-Amino-5-fluoro-6-(hexylamino)-3-oxo-3H-pyrido[3,2,1-kl]phenoxazine-2-carboxylic acid]	4.81	–	> 200	–	MIC [4, 11]: > 200 µM; IC50 [1, 12]: 3.9 to 15.6 µM
CC(=O)Nc1ccc2c(c1)Oc1c(F)c(F)cc3c(=O)c(C(=O)O)cn-2c13 [Compound 12, 9-acetamido-5,6-difluoro-3-oxo-3H-pyrido[3,2,1-kl]phenoxazine-2-carboxylic acid]	5.11	–	> 200	–	MIC [4, 11]: > 200 µM
CC(C)(C)OC(=O)N[C@H]1CCN(c2c(F)cc3c(=O)c(C(=O)O)cn4c3c2Oc2cc(N)ccc2-4)C1 [Compound 15a, (S)-9-amino-6-(3-((tert-butoxycarbonyl)amino)pyrrolidin-1-yl)-S-fluoro-3-oxo-3H-pyrido[3,2,1-kl]phenoxazine-2-carboxylic acid]	5.41	–	–	3.9	MIC ([4]; wild type): 12.5 µM (≈ 6.21 µg/mL); IC50 [1, 9]: 3.9 µM; Whole cell based antibacterial activity (MIC) E. coli Imp4213 (BAS3023) [2]: 12.5 µM; MIC [3]: >200 µM
Nc1ccc2c(c1)Oc1c(N3CC[C@H](N)C3)c(F)cc3c(=O)c(C(=O)O)cn-2c13 [Compound 17a, (S)-9-amino-6-(3-aminopyrrolidin-1-yl)-S-fluoro-3-oxo-3H-pyrido[3,2,1-kl]phenoxazine-2-carboxylic acid]	6.14	–	–	0.48 to 0.97	MIC ([4]; wild type): 6.25 µM (≈ 2.48 µg/mL); IC50 [1, 9]: 0.73 µM; MIC [7]: >63.1 µM; Whole cell based antibacterial activity (MIC) E. coli Imp4213 (BAS3023) [2]: 1.56 µM; MIC [3]: >200 µM; IC50 [6]: > 63.1 µM
Nc1ccc2c(c1)Oc1c(N3CC[C@@H](N)C3)c(F)cc3c(=O)c(C(=O)O)cn-2c13 [Compound 17b, (R)-9-amino-6-(3-aminopyrrolidin-1-yl)-5-fluoro-3-oxo-3H-pyrido[3,2,1-kl]phenoxazine-2-carboxylic acid]	6.14	6.25 (≈ 2.48 µg/mL)	> 200	–	MIC [7]: >63.1 µM; MIC ([7]; Mycobacterium tuberculosis, H37RV): > 63.1 µM; IC50 ([6]; Chlorocebus sabaeus, Vero): > 63.1 µM

Source: US10266550B2, “Bacterial topoisomerase I inhibitors with antibacterial activity” (The Florida International University Board of Trustees, priority 2016, dated 2019)
